Source: the NIST ThermoML archive (doi:10.1021/je800375t)

Conditions: Liquid

COC [dimethyl ether]
Conditions | vapor or sublimation pressure [kPa]
213.08 K | 16.46
218.11 K | 22.24
223.15 K | 29.61
228.06 K | 38.64
233.09 K | 49.96
238.11 K | 63.84
243.07 K | 80.36
248.12 K | 100.43
253.12 K | 124.09
258.13 K | 152.4
263.13 K | 184.96
268.13 K | 222.7
273.17 K | 266.5
278.17 K | 316.12
283.16 K | 372.9
288.13 K | 436.69
293.17 K | 509.01
298.08 K | 588.17
298.78 K | 600.51
303.15 K | 679.68
303.78 K | 691.56
308.13 K | 778.92
313.17 K | 889.98
318.16 K | 1011.5
323.17 K | 1144.7
328.16 K | 1290.2
333.17 K | 1449.2
338.17 K | 1621.5
343.16 K | 1809.1
348.16 K | 2012.4
353.16 K | 2232.3
358.16 K | 2468.9
363.16 K | 2723.3
368.14 K | 2996.4
373.14 K | 3291.2
378.15 K | 3608.6
383.15 K | 3948.6
388.16 K | 4313.9
393.16 K | 4706.2
